From patent US9642889B2, “Macrocyclic inhibitors of Flaviviridae viruses” (Selcia Limited, priority 2012, dated 2017)
Read-outs that look alike come from different tables or passages of the source.

Experiments:
[1] = tested on: Huh-7 HCV replicon cells (1b replicon); assay: anti-HCV activity in Huh-7 cell line harboring a HCV replicon (luciferase readout); type: cell-based; conditions: for Replicon 1b % inhibition at 1 μM: 1b replicon, 1 μM compound
[2] = target: cyclophilin A (Homo sapiens, UniProt P62937); assay: Cyclophilin A TR-FRET competitive binding assay; conditions: competition with CsA-Cy5 for His-tagged CypA, two-hour incubation
Protocol: Cyclophilin A TR-FRET Competitive Binding Assay
Inhibitor potency was measured using a competitive binding assay with a time-resolved fluorescence resonance energy transfer (TR-FRET) readout. […] An IC50 value was calculated using a four-parameter logistic fit.

[3] = Hepatitis C virus, Huh-7, 72 h, inhibition of viral replication, Huh-7 HCV replicon cells, 3 days, read-out: EC50
[4] = Hepatitis C virus, Huh-7, read-out: Replicon 1b % inhibition at 1 μM, 1b replicon, 1 μM compound
[5] = inhibition of viral replication, Huh-7 HCV replicon cells, 3 days, read-out: EC50

Chain of cyclophilin A (P62937 whole entry, species assumed): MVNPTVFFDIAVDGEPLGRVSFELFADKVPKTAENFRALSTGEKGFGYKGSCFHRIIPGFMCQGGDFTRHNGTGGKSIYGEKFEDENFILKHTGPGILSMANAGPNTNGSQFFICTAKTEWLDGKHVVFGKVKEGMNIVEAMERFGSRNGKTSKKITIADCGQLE

Row | SMILES | EC50 [1, 3] | inhibition at 1 µM [1, 4] | IC50 [2] | Replicon 1b % inhibition at 1 μM ([1]; 1 µM) | EC50 [1, 5] | Replicon 1b % inhibition at 1 μM [1] | EC50 ([1]; Hepatitis C virus, Huh-7, 72 h) | inhibition at 1 µM ([1]; Hepatitis C virus, Huh-7, read-out: Replicon 1b % inhibition at 1 μM)
1 | CC(C)C(=O)O[C@H]1CC[C@@]2(/C=C/c3ccc4ccc(nc4c3)[C@@H](C)NC(=O)[C@@H]3CCCN(N3)C(=O)[C@H](C)NC(=O)[C@H](C(C)C)OC2=O)CC1 [Compound 80] | < 1 µM | 99% | < 0.1 µM | – | – | – | – | –
2 | C[C@@H]1NC(=O)[C@H](C2CC2)OC(=O)C2(/C=C/c3ccc4ccc(nc4c3)[C@@H](C)NC(=O)[C@@H]3CCCN(N3)C1=O)COCCOC2 [Compound 93] | < 1 µM | 98% | < 0.1 µM | – | – | – | – | –
3 | CC(C)[C@@H]1NS(=O)(=O)C/C=C/c2cc3cc(ccc3cn2)[C@@H](C)OC(=O)[C@@H]2CCCN(N2)C(=O)[C@H](C)NC1=O [Compound 21] | < 1 µM | 71% | 0.101 to 1 µM | – | – | – | – | –
4 | CC(C)[C@@H]1OC(=O)C2(/C=C/c3ccc4ccc(nc4c3)[C@@H](C)NC(=O)[C@@H]3CCCN(N3)C(=O)[C@H](C)NC1=O)CCCOC2 (single isomer, unassigned) [Compound 50] | < 1 µM | 100% | < 0.1 µM | – | – | – | – | –
5 | CC1NC(=O)C(C2CC2)OC(=O)C2(C=Cc3ccc4ccc(nc4c3)C(C)NC(=O)C3CCCN(N3)C1=O)CCC(O)C2 (single isomer, unassigned) [Compound 104] | – | – | < 0.1 µM | 56% | < 1 µM | – | – | –
6 | C[C@@H]1NC(=O)[C@H](C2CC2)OC(=O)C2(/C=C/c3ccc4ccc(nc4c3)[C@@H](C)NC(=O)[C@@H]3CCCN(N3)C1=O)COCOC2 [Compound 53] | < 1 µM | 99% | < 0.1 µM | – | – | – | – | –
7 | C[C@@H]1NC(=O)[C@H](C2CCCC2)OC(=O)C2(/C=C/c3ccc4ccc(nc4c3)[C@@H](C)NC(=O)[C@@H]3CCCN(N3)C1=O)COCOC2 [Compound 63] | < 1 µM | 100% | < 0.1 µM | – | – | – | – | –
8 | CC(C)[C@@H]1OCCCCCc2cc3cc(ccc3cn2)[C@@H](C)OC(=O)[C@@H]2CCCN(N2)C(=O)[C@H](C)NC1=O [Compound 24] | < 1 µM | 83% | < 0.1 µM | – | – | – | – | –
9 | CC(CC[C@@H]1C/C=C/c2cc3cc(ccc3cn2)[C@@H](C)NC(=O)[C@@H]2CCCN(N2)C(=O)[C@H](C)NC(=O)[C@H](C(C)C)OC1=O)=NOCCN1CCOCC1 (mixture of isomers) [Compound 15] | < 1 µM | 98% | < 0.1 µM | – | – | – | – | –
10 | C[C@@H]1NC(=O)[C@H]([C@@H](C)OC(C)(C)C)OC(=O)C(C)(C)/C=C/c2ccc3ccc(nc3c2)[C@@H](C)NC(=O)[C@@H]2CCCN(N2)C1=O [Compound 86] | < 1 µM | 93% | 0.101 to 1 µM | – | – | – | – | –
11 | CC(C)[C@@H]1OC(=O)C2(/C=C/c3ccc4ccc(nc4c3)[C@@H](C)NC(=O)[C@@H]3CCCN(N3)C(=O)[C@H](C)NC1=O)CCN(C(=O)OC(C)(C)C)CC2 [Compound 84] | 1.1 to 10 µM | 10% | 1 to 10 µM | – | – | – | – | –
12 | CC[C@H](C)[C@@H]1OC(=O)C2(/C=C/c3ccc4ccc(nc4c3)[C@@H](C)NC(=O)[C@@H]3CCCN(N3)C(=O)[C@H](C)NC1=O)COCOC2 [Compound 65] | < 1 µM | 99% | < 0.1 µM | – | – | – | – | –
13 | CCC(=O)O[C@H]1CC[C@@]2(/C=C/c3ccc4ccc(nc4c3)[C@@H](C)NC(=O)[C@@H]3CCCN(N3)C(=O)[C@H](C)NC(=O)[C@H](C(C)C)OC2=O)CC1 [Compound 109] | < 1 µM | 99% | < 0.1 µM | – | – | – | – | –
14 | CCC[C@@H]1CCCc2cc3cc(ccc3cn2)[C@@H](C)NC(=O)[C@@H]2CCCN(N2)C(=O)[C@H](C)NC(=O)[C@H](C(C)C)OC1=O [Compound 9] | < 1 µM | 100% | < 0.1 µM | – | – | – | – | –
15 | C[C@@H]1NC(=O)[C@H](C2CC2)OC(=O)C2(/C=C/c3ccc4ccc(nc4c3)[C@@H](C)NC(=O)[C@@H]3CCCN(N3)C1=O)CCC(O)CC2 (stereo partly drawn) [Compound 66] | < 1 µM | 97% | < 0.1 µM | – | – | – | – | –
16 | CC(C)[C@@H]1OC(=O)C2(/C=C/c3ccc4ccc(nc4c3)[C@@H](C)NC(=O)[C@]3(C)CCCN(N3)C(=O)[C@H](C)NC1=O)CCC(O)CC2 (mixture of isomers) [Compound 94] | < 1 µM | 94% | < 0.1 µM | – | – | – | – | –
17 | CC(C)[C@@H]1OC(=O)C(C)(C)/C=C/c2ccc3ccc(nc3c2)[C@@H](C)N(C)C(=O)[C@@H]2CCCN(N2)C(=O)[C@H](C)NC1=O [Compound 47] | < 1 µM | 100% | < 0.1 µM | – | – | – | – | –
18 | CC1/C=C/c2ccc3ccc(nc3c2)[C@@H](C)OC(=O)[C@@H]2CCCN(N2)C(=O)[C@H](C)NC(=O)[C@H](C(C)C)OC1 (single isomer, unassigned) [Compound 27] | < 1 µM | 92% | < 0.1 µM | – | – | – | – | –
19 | CC1/C=C/c2cc3cc(ccc3cn2)[C@@H](C)NC(=O)[C@@H]2CCCN(N2)C(=O)[C@H](C)NC(=O)[C@H](C(C)C)OC1=O (stereo partly drawn) [Compound 5] | < 1 µM | 93% | < 0.1 µM | – | – | – | – | –

Row | SMILES | EC50 [1, 3] | inhibition at 1 µM [1, 4] | IC50 [2] | Replicon 1b % inhibition at 1 μM ([1]; 1 µM) | EC50 [1, 5] | Replicon 1b % inhibition at 1 μM [1] | EC50 ([1]; Hepatitis C virus, Huh-7, 72 h) | inhibition at 1 µM ([1]; Hepatitis C virus, Huh-7, read-out: Replicon 1b % inhibition at 1 μM)
20 | CC1/C=C/c2ccc3ccc(nc3c2)[C@@H](C)NC(=O)[C@@H]2CCCN(N2)C(=O)[C@H](C)NC(=O)[C@H](C(C)C)OC1 (single isomer, unassigned) [Compound 35] | < 1 µM | 88% | < 0.1 µM | – | – | – | – | –
21 | CC(F)[C@@H]1OC(=O)C(C)(C)/C=C/c2ccc3ccc(nc3c2)[C@@H](C)NC(=O)[C@@H]2CCCN(N2)C(=O)[C@H](C)NC1=O (stereo partly drawn) [Compound 68] | < 1 µM | 93% | < 0.1 µM | – | – | – | – | –
22 | CC(C)C(=O)O[C@H]1CC[C@]2(/C=C/c3ccc4ccc(nc4c3)[C@@H](C)NC(=O)[C@@H]3CCCN(N3)C(=O)[C@H](C)NC(=O)[C@H](C(C)C)OC2=O)CC1 [Compound 81] | < 1 µM | 100% | < 0.1 µM | – | – | – | – | –
23 | CC([C@@H]1OC(=O)C(C)(C)/C=C/c2ccc3ccc(nc3c2)[C@@H](C)NC(=O)[C@@H]2CCCN(N2)C(=O)[C@H](C)NC1=O)C(F)(F)F (stereo partly drawn) [Compound 71] | < 1 µM | 96% | < 0.1 µM | – | – | – | – | –
24 | CC(C)[C@@H]1OC(=O)C(C)(C)/C=C/c2ccc3ccc(nc3c2)[C@@H](C)N(C)C(=O)[C@@H]2CCCN(N2)C(=O)[C@H](CO)NC1=O [Compound 41] | < 1 µM | 98% | < 0.1 µM | – | – | – | – | –
25 | CC(C)[C@@H]1OC(=O)C2(/C=C/c3ccc4ccc(nc4c3)[C@@H](C)NC(=O)[C@@H]3CCCN(N3)C(=O)[C@H](C)NC1=O)COCCO2 (single isomer, unassigned) [Compound 43] | – | – | < 0.1 µM | – | < 1 µM | 99% | – | –
26 | CO[C@H](C)[C@@H]1OC(=O)C(C)(C)/C=C/c2ccc3ccc(nc3c2)[C@@H](C)NC(=O)[C@@H]2CCCN(N2)C(=O)[C@H](C)NC1=O [Compound 60] | < 1 µM | 96% | < 0.1 µM | – | – | – | – | –
27 | C[C@@H]1NC(=O)[C@H](C2CC2)OC(=O)C2(/C=C/c3ccc4ccc(nc4c3)[C@@H](C)NC(=O)[C@@H]3CCCN(N3)C1=O)CCC(O)C2 (stereo partly drawn) [Compound 102] | 1.1 to 10 µM | 13% | < 0.1 µM | – | – | – | – | –
28 | C[C@@H]1NC(=O)[C@H](C)OC(=O)C(C)(C)/C=C/c2ccc3ccc(nc3c2)[C@@H](C)NC(=O)[C@@H]2CCCN(N2)C1=O [Compound 61] | 1.1 to 10 µM | 46% | 0.101 to 1 µM | – | – | – | – | –
29 | CCC[C@@H]1C/C=C/c2cc3cc(ccc3cn2)[C@@H](C)NC(=O)[C@@H]2CCCN(N2)C(=O)[C@H](C)NC(=O)[C@H](C(C)C)OC1=O [Compound 4] | < 1 µM | 100% | < 0.1 µM | – | – | – | – | –
30 | CC(C)[C@H]1C(=O)N[C@@H](C)C(=O)N2CCC[C@H](N2)C(=O)O[C@H](C)c2ccc3ccc(cc3n2)/C=C/C(C)(C)CN1C [Compound 26] | < 1 µM | 68% | 0.101 to 1 µM | – | – | – | – | –
31 | CCN1CCOC2(/C=C/c3ccc4ccc(nc4c3)[C@@H](C)NC(=O)[C@@H]3CCCN(N3)C(=O)[C@H](C)NC(=O)[C@H](C(C)C)OC2=O)C1 (stereo partly drawn) [Compound 96] | – | – | < 0.1 µM | – | – | – | < 1 µM | 91%
32 | CC(C)[C@@H]1OC(=O)[C@@](C)(CO)CCc2ccc3ccc(nc3c2)[C@@H](C)NC(=O)[C@@H]2CCCN(N2)C(=O)[C@H](C)NC1=O [Compound 30] | < 1 µM | 84% | < 0.1 µM | – | – | – | – | –
33 | COCC1NC(=O)C(C(C)C)OC(=O)C(C)(C)C=Cc2ccc3ccc(nc3c2)C(C)NC(=O)C2CCCN(N2)C1=O (single isomer, unassigned) [Compound 39] | 1.1 to 10 µM | 16% | 0.101 to 1 µM | – | – | – | – | –
34 | CC(=O)O[C@H]1CC[C@@]2(/C=C/c3ccc4ccc(nc4c3)[C@@H](C)NC(=O)[C@@H]3CCCN(N3)C(=O)[C@H](C)NC(=O)[C@H](C(C)C)OC2=O)CC1 [Compound 110] | < 1 µM | 100% | < 0.1 µM | – | – | – | – | –
35 | CCCC(=O)O[C@H]1CC[C@@]2(/C=C/c3ccc4ccc(nc4c3)[C@@H](C)NC(=O)[C@@H]3CCCN(N3)C(=O)[C@H](C)NC(=O)[C@H](C(C)C)OC2=O)CC1 [Compound 108] | < 1 µM | 99% | < 0.1 µM | – | – | – | – | –
36 | CC(C)[C@@H]1OC(=O)[C@@]2(/C=C/c3ccc4ccc(nc4c3)[C@@H](C)NC(=O)[C@@H]3CCCN(N3)C(=O)[C@H](C)NC1=O)CCOC(C)(C)C2 [Compound 90] | < 1 µM | 99% | < 0.1 µM | – | – | – | – | –
37 | CC(C)[C@@H]1N[C@H](C(F)(F)F)C(C)(C)/C=C/c2ccc3ccc(nc3c2)[C@@H](C)OC(=O)[C@@H]2CCCN(N2)C(=O)[C@H](C)NC1=O [Compound 31] | < 1 µM | 88% | < 0.1 µM | – | – | – | – | –
